Laboratory results published in US10358453B2, “Antiviral compounds” (priority 2015, dated 2019).
Where two headings read alike, the source gives them in different places.

Columns and labels:
[1] = biological target: recombinant RSV complex (Human respiratory syncytial virus A, UniProt P28887); assay: RSV polymerase inhibition assay; type: biochemical; conditions: 10 nM recombinant RSV complex, 2 h at 30° C.; Table E = <1 μM, Table F = <50 μM; read-out: IC50
Summary of the method: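 10 nM recombinant RSV polymerase complex in Tris-HCl pH7.5, 6 mM MgCl2 with RNA oligonucleotides and radionucleotides, incubated 2 h at 30° C with rising inhibitor concentrations. Stopped with EDTA; radiolabelled RNA product counted by scintillation; IC50 from sigmoidal non-linear regression.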

[2] = tested on: RSV subgenomic replicon 395 HeLa and APC126; assay: RSV subgenomic replicon assay (Renilla luciferase); type: cell-based; conditions: human respiratory syncytial virus; RSV replicon cells (395 HeLa 7 days or APC126 3 days); Table G = less than 1 μM, Table H = equal to or higher than 1 μM and less than 50 μM
Summary of the method: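 Replicon cells (RSV with SH, G, F replaced by blasticidin resistance; 395 HeLa or BHK-derived APC126) exposed to 9-point 1:3 compound dilutions in 1% DMSO for 7 days (395 HeLa) or 3 days (APC126) at 37 °C. Renilla luciferase luminescence read; EC50 is concentration cutting signal 50% versus untreated cells.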

[3] = tested on: Respiratory Syncytial Virus (RSV) long strain; assay: RSV antiviral assay (CPE reduction, CCK-8 readout); type: cell-based; conditions: human respiratory syncytial virus
Protocol: CPE reduction assays are performed as described by Sidwell and Huffman et al., Appl. Microbiol. […] Compounds are added into 384-well cell plates by Labcyte POD 810 Plate Assembler system. Each of the test compounds is provided to duplicate wells of a 384-well cell plate at final concentrations starting from 100 μM or 1 μM using 1/3 stepwise dilutions for 9 points. Quick-thaw Respiratory Syncytial Virus (RSV) long strain (ATCC#VR-26) stock in a 37° C. water bath. Place on ice until ready to use. Viruses are diluted to the concentration of 100 TCID50/30 μL with medium and 30 μl diluted RSV are added into related wells of 384-well cell plates. For each plate, sixteen wells are set aside as uninfected, untreated cell controls (CC), and nine wells per test plate receive virus only as a control for virus replication (VC). The final DMSO concentration of all wells is 1%. Place the plates at 37° C., 5% CO2 for 5 days.
After 5 days incubation, observe the CPE of cells in all wells. […] Six μl of cell counting kit-8 reagent (CCK-8, Dojindo Molecular Technologies Inc., CK04-20) are added to each well, which allows colorimetric assays to determine the number of viable cells through the dehydrogenase activity detection. After 3-4 hour incubation, the absorbance of each well is measured with a spectrophotometric plate reader at 450 nm wavelength, using a 630 nm filter as background according to manufacturer's instruction.

[4] = Cytotoxicity determination (CCK-8, without addition of virus); type: cell-based; conditions: human, HEp-2 cells (uninfected), no virus, Table C = greater than 100 μM, Table D = equal to or less than 100 μM and greater than 10 μM
Summary of the method: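 HEp-2 cells, no virus, exposed to compound from 100 μM in ½ serial dilutions (7 points, duplicate, 1% DMSO) for 5 days at 37° C, 5% CO2. Viability by CCK-8 (3-4 h) optical density; CC50 calculated.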

[5] = 120 h, HEp-2 cells, RSV long strain, 5 days, Table A = less than 1 μM, Table B = equal to or higher than 1 μM and less than 50 μM, read-out: EC50

recombinant RSV complex, sequence (P28887 whole entry): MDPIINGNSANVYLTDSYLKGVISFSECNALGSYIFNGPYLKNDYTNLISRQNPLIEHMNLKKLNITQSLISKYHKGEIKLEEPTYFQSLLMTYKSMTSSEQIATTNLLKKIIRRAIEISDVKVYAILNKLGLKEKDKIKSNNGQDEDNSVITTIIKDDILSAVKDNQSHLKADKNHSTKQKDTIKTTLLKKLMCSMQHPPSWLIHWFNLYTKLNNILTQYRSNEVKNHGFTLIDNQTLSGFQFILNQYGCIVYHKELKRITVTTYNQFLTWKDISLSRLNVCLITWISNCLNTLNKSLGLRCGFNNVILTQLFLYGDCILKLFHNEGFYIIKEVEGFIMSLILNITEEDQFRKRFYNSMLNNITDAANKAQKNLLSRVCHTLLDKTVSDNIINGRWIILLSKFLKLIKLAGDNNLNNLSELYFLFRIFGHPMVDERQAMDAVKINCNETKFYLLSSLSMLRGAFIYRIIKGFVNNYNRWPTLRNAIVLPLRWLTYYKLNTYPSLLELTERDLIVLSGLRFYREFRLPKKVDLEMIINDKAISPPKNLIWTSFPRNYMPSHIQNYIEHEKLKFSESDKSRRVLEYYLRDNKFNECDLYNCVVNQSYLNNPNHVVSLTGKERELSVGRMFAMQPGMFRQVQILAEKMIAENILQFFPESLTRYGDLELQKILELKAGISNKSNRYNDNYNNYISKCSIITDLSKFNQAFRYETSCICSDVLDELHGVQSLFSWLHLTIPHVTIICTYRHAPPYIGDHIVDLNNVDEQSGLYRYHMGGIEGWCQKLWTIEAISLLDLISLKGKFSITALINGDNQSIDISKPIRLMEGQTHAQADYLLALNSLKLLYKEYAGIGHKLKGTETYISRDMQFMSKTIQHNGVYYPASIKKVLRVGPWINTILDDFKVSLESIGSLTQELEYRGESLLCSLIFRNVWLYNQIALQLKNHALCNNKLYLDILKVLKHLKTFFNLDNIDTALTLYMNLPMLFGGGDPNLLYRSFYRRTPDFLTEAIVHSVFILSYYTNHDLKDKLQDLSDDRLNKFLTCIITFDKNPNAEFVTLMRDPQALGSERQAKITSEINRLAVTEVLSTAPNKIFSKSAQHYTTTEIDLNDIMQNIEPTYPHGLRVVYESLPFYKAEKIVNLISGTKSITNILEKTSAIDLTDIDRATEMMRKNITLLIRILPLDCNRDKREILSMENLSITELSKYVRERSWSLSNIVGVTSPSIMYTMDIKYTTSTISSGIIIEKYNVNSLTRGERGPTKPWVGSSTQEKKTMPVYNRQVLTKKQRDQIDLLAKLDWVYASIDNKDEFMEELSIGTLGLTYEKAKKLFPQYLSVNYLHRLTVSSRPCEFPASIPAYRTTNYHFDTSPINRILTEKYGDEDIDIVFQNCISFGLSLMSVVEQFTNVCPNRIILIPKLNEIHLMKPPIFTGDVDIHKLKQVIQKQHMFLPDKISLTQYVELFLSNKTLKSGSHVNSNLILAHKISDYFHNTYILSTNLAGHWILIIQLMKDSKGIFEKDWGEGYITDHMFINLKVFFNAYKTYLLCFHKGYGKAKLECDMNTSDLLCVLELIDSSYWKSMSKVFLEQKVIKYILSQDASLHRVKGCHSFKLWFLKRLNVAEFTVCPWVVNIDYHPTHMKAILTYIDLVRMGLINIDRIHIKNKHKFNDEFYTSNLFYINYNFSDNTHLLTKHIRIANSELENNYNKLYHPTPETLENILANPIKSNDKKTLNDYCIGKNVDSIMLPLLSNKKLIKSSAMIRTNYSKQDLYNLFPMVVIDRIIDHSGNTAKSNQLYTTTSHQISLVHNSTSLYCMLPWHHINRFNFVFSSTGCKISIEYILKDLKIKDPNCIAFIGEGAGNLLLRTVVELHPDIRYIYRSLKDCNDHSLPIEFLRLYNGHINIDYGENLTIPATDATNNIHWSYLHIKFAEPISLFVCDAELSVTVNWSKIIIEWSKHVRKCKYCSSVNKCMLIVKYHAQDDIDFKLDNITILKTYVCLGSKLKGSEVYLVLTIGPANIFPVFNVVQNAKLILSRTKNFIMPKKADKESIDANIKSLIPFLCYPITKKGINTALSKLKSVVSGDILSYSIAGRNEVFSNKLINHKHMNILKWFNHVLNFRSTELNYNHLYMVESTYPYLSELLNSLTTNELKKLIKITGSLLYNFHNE
recombinant RSV complex, sequence (P03421 whole entry, further chain): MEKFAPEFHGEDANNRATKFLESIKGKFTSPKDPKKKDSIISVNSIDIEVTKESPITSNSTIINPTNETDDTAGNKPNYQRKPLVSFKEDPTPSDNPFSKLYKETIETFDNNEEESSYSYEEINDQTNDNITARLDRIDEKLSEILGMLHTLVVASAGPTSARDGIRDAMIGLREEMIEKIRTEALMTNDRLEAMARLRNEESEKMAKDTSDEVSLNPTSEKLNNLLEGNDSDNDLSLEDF

| SMILES | IC50 [1] [µM] | EC50 [2] [µM] | EC50 [3, 5] [µM] | CC50 at 5 days [4] [µM] | EC50 ([3]; HEp-2, 120 h) [µM] |
| --- | --- | --- | --- | --- | --- |
| COc1cc(C(=O)NCC(O)(c2cc3c(c(-c4ccc(F)cc4)n2)OCC3(N)CO)C(F)(F)F)cc2cccnc12 (single isomer, unassigned) [Compound 2] | < 1 | < 1 | < 1 |  |  |
| COc1cc(C(=O)NCC(O)(c2cc3c(c(-c4ccc(F)cc4)n2)OCC3(N)CO)C(F)(F)F)cc2cccnc12 (centres unmarked) [Compound 1] | < 1 | < 1 |  | 10 to 100 | < 1 |
| COc1cc(C(=O)NCC(O)(c2cc3c(c(-c4ccc(F)cc4)n2)OCC3(C)N)C(F)(F)F)cc2c1NC(=O)C2=O (centres unmarked) [Compound 10] | < 50 | 1 to 50 | 1 to 50 | 10 to 100 |  |
| CC1(N)COc2c1cc(C(O)(CNC(=O)c1ccc(OC3CC3)c(OCCO)c1)C(F)(F)F)nc2-c1ccc(F)cc1 (centres unmarked) [Compound 12] | < 1 | < 1 | < 1 |  |  |
| COc1cc(C(=O)NCC(O)(c2cc3c(c(-c4ccc(F)cc4)n2)OCC3(N)CO)C(F)(F)F)cc2cc[nH]c12 (centres unmarked) [Compound 102] | < 1 | 1 to 50 |  | 10 to 100 |  |
| COc1cc(C(=O)NCC(O)(c2cc3c(c(-c4ccc(F)cc4)n2)OCCC3(C)N)C(F)(F)F)ccc1OC[C@@H](C)O (some centres unmarked) [Compound 103] | < 1 | < 1 |  | 10 to 100 |  |
| COc1cc(C(=O)NCC(O)(c2cc3c(c(-c4ccc(F)cc4)n2)OCC32CCN2)C(F)(F)F)ccc1OC[C@@H](C)O (some centres unmarked) [Compound 108] | < 1 | 1 to 50 |  | 10 to 100 |  |
| COc1ccc(C(=O)NCC(O)(c2cc3c(c(-c4ccc(F)cc4)n2)OCC3(C)N)C(F)(F)F)nc1OC (centres unmarked) [Compound 112] | < 1 | < 1 |  | 10 to 100 |  |
| C[C@@H](O)COc1ccc(C(=O)NC[C@@](O)(c2cc3c(c(-c4ccc(F)cc4)n2)OC[C@@]3(C)N)C(F)(F)F)cc1Cl [Compound 113] | < 1 | < 1 |  | 10 to 100 |  |
| Cn1nc(C(F)(F)F)cc1C(=O)NCC(O)(c1cc2c(c(-c3ccc(F)cc3)n1)OCC2(C)N)C(F)(F)F (centres unmarked) [Compound 114] | < 1 | < 1 |  | 10 to 100 |  |
| COc1cc(C(=O)NCC(O)(c2cc(C3(C)CCNCC3)cc(-c3ccc(F)cc3)n2)C(F)(F)F)ccc1OCCO (centres unmarked) [Compound 117] | < 50 | 1 to 50 |  | 10 to 100 |  |
| COc1cc(C(=O)NCC(O)(c2cc(C3(C)COCCN3)cc(-c3ccc(F)cc3)n2)C(F)(F)F)ccc1OCCO (centres unmarked) [Compound 119] | < 1 | < 1 |  | > 100 |  |
| COc1cc(C(=O)NCC(O)(c2nc(-c3ccc(F)cc3)cc3c2OC(C)(N)C3)C(F)(F)F)ccc1OC[C@@H](C)O (some centres unmarked) [Compound 120] | < 1 | < 1 |  | 10 to 100 |  |
| COc1cc(C(=O)NC[C@@](O)(c2cc3c(c(-c4ccc(F)cc4)n2)OC[C@@]3(C)N)C(F)(F)F)ccc1OCC(C)=O [Compound 121] | < 1 | < 1 |  | 10 to 100 |  |
| COc1cc(C(=O)NC[C@@](O)(c2cc3c(c(-c4ccc(F)cc4)n2)OC[C@@]3(C)N)C(F)(F)F)cc(F)c1OC[C@@H](C)O [Compound 122] | < 1 | < 1 |  | 10 to 100 |  |
| COc1cc(C(=O)NC[C@@](O)(c2cc3c(c(-c4ccc(F)cc4)n2)OC[C@@]3(C)NO)C(F)(F)F)ccc1OC[C@@H](C)O [Compound 123] | < 1 | < 1 |  | 10 to 100 |  |
| C[C@@]1(N)COc2c1cc([C@](O)(CNC(=O)c1cc(OCCO)c3[nH]ccc3c1)C(F)(F)F)nc2-c1ccc(F)cc1 [Compound 124] | < 1 | < 1 |  | 10 to 100 |  |
| COc1cc(C(=O)NCC(O)(c2cc3c(c(-c4ccc(F)cc4)n2)OCC3(C)N)C(F)(F)F)ccc1OC(C)(C)CO (centres unmarked) [Compound 125] | < 1 | < 1 |  | 10 to 100 |  |
| COc1cc(C(=O)NC[C@@](O)(c2cc3c(c(-c4ccc(F)cc4)n2)NC[C@@]3(C)N)C(F)(F)F)ccc1OC1CC1 [Compound 127] | < 1 | < 1 |  | 10 to 100 |  |
| COc1cc(C(=O)NC[C@@](O)(c2cc3c(c(-c4ccc(F)cc4)n2)OC[C@@]3(C)NC(C)=N)C(F)(F)F)ccc1OC[C@@H](C)O [Compound 130] | < 1 | < 1 |  | > 100 |  |
| COc1cc(C(=O)NC[C@@](O)(c2cc3c(c(-c4ccc(F)cc4)n2)OC[C@@]3(C)NC2COC2)C(F)(F)F)ccc1OC[C@@H](C)O [Compound 131] | < 1 | < 1 |  | 10 to 100 |  |
| COc1cc(C(=O)NC[C@@](O)(c2cc3c(c(-c4ccc(F)cc4)n2)OC[C@@]3(C)NC(N)=O)C(F)(F)F)ccc1OC[C@@H](C)O [Compound 132] | < 1 | < 1 |  | 10 to 100 |  |
| COc1cc(C(=O)NCC(O)(c2cc(N3CCNCC3)cc(-c3ccc(F)cc3)n2)C(F)(F)F)ccc1OCCO (centres unmarked) [Compound 138] | < 1 | 1 to 50 |  | 10 to 100 |  |
